In assay [1] the test system is C57BL/6N DIO mice. The assay is described as follows: Anti-obesity effect (DIO mouse, free feeding). The format is in vivo. The following applies: DIO mice freely fed high-fat diet, 30 mg/kg orally once a day for 3 wk, vs vehicle group. An excerpt: 45-week-old male C57BL/6N DIO mice were each acclimatized for 1 wk under individual housing. Then, the mice were divided into 2 groups each involving 6 mice with their weights, amounts of weight change, and food intakes during the acclimatization period as indexes. Each mouse was freely fed a purified high-fat diet (D12451) for 3 wk under individual rearing. […] The weight was compared between the test groups.

For assay [2], the system named is C57BL/6N mice. The assay is described as follows: NAD+ level in retina (normal mouse). The following applies: normal C57BL/6N mice, 30 mg/kg orally, 4 h after administration, LC/MS. Format: in vivo. As for the experimental part:
4 h after the administration, each mouse was sacrificed by exanguination. The retina was harvested from both eyes. The retina (4 eye pools per sample) was homogenized with a 100-fold amount of 2 M perchloric acid per retinal tissue weight. Then, the samples were centrifuged and the supernatant was neutralized with 5 M […]. After removal of potassium perchlorate, the NAD^+ concentration in the supernatant sample was measured using LC/MS.

In assay [3] the test system is C57BL/6N DIO mice. The assay is described as follows: Energy expenditure in DIO mouse (oxygen consumption). Format: in vivo. The following applies: 100 mg/kg orally once a day, vs vehicle group. The procedure: 48-week-old male C57BL/6N DIO mice were divided into 2 groups each involving 4 mice. Each mouse was acclimatized for 3 d under individual housing and then fasted overnight. […] Oxygen consumptions (VO2) and carbon dioxide outputs (VCO2) were measured for approximately 73 h (approximately 9 h under fasting (on the order of 9:00 to 18:00) and approximately 64 h under feeding (on the order of 18:00 to 10:00 of two days later)) using Comprehensive Lab Animal Monitoring System (Columbus Instruments International Corp.).

Assay [4] concerns C57BL/6N mice. Put plainly: Tissue NAD+ level in normal mice. Format: in vivo, mouse. The following applies: normal C57BL/6N mice, 30 or 100 mg/kg orally, 24 h after administration, LC/MS. As for the experimental part:
(§1) 24 h after the administration, each mouse was sacrificed by exsanguination. The liver, gastrocnemius, soleus, and brown adipose tissues were harvested. Each tissue was homogenized with a 10- or 100-fold amount of 2 M perchloric acid per its weight. Then, the samples were centrifuged and the supernatant was neutralized with 5 M […]. After removal of potassium perchlorate, the NAD^+ concentration in the supernatant of sample was measured using LC/MS.

A further assay deals with HEK293A cells. Put plainly: Effect of NAMPT activator on the intracellular NAD+ level (in vitro cell-based assay). The settings on record: HEK293-A, 3 h culture with compound, NAD+/NADH-Glo assay, read-out: EC50 (intracellular NAD+ content). As for the experimental part:
HEK293A cells were cultured in Dulbecco's Modified Eagle Medium (DMEM (high glucose)) containing 10% fetal bovine serum (FBS), non-essential amino acid (NEAA), and antibiotic-antimycotic [reaction medium]. On the day before the test, HEK293A cells were inoculated at a ratio of 3.0×10^4 cells/80 μL to 96 well poly-D-lysine coated plate and cultured overnight in a CO2 incubator.
On the day of the test, each test compound diluted with reaction medium to a concentration of 5 times the final concentration was added at a ratio of 20 μL/well, and the cells were further cultured for 3 h. After removal of the medium, the cells were lysed in 50 μL/well of Bicarbonate Base Buffer (100 mM sodium carbonate, 20 mM sodium bicarbonate, 100 mM nicotinamide, 20 mM Triton X-100) containing 1% dodecyl trimethyl-ammonium bromide (DTAB). The NAD^+ content in the cell extract was measured using NAD^+/NADH-Glo assay kit according to the manufacturer's instructions. Hereinafter, the procedures will be briefly described. 20 μL of the lysate was separated, and 10 μL of 0.4 N HCL was added thereto, followed by incubation at 60° C. for 15 min and subsequently at 25° C. for 10 min. The mixture was neutralized by the addition of 10 μL of 0.5 M Trizma base solution and then diluted 10-fold with distilled water. 15 μL of the diluted sample was mixed with an equal amount (15 μL) of NAD^+/NADH-Glo reagent in 384 well black plate, and the mixture was incubated for 30 min in the dark. Then, chemiluminescence intensity was measured.
EC50 value of each compound was calculated from the calculated values of the compound at various concentrations using GraphPad Prism software (Table 2).

Assay [5] concerns C57BL/6N DIO mice. The assay is described as follows: Tissue NAD+ level in DIO mouse - 2 (major tissues). The format is in vivo. The following applies: 30 mg/kg orally, 24 h after administration, LC/MS. The procedure: 24 h after the administration, each mouse was sacrificed by exanguination. The heart, kidney, spleen, lung, and white adipose tissues were harvested. For a control, the same organs as above were harvested from 8-week-old male C57BL/6N mice. Each tissue was homogenized with a 10- or 100-fold amount of 2 M perchloric acid per its weight. Then, the samples were centrifuged and the supernatant was neutralized with 5 M […]. After removal of potassium perchlorate, the NAD^+ concentration in the supernatant of sample was measured using LC/MS.

For assay [6], the system named is C57BL/6N DIO mice. The assay is described as follows: Tissue NAD+ level in diet-induced obese (DIO) mice. The format is in vivo, mouse. The following applies: 30 or 100 mg/kg orally, 24 h after administration, LC/MS. The procedure:
as §1

In the next assay the target is human NAMPT enzyme (Homo sapiens (Human), UniProt P43490). Put plainly: NAMPT enzyme activating effect (in vitro cell-free enzyme assay). The format is biochemical. The settings on record: 2 ng/mL human NAMPT enzyme, 1-h incubation at 25° C., fluorescence of NMN derivative. The procedure:
The NAMPT enzyme assay was conducted in accordance with the method of Formentini et al. […] Hereinafter, the procedures will be briefly described. The NAMPT enzyme reaction was carried out using polypropylene 384 well V shaped black plate (Greiner Bio One International GmbH). […] Then, 22 μL of 88% formic acid was added and the mixture was further incubated for 30 min in the dark. The NAMPT enzyme activity was calculated as the difference between fluorescence intensity (Ex 380 nm/Em 450 nm) from the reaction of a test compound treatment group and fluorescence intensity from control reaction free from the NAMPT enzyme. [NAMPT enzyme activity]=[Fluorescence intensity of the test substance treatment group]−[Mean fluorescence intensity of the control reaction free from the NAMPT enzyme] EC50 value of each compound was calculated from the enzyme activities of the compound at various concentrations by using GraphPad Prism software (GraphPad Software) (Table 1)

For another assay, the system named is WKY rats. The following applies: 5 mg/kg intraperitoneally 0.5 h before Main FST, vs vehicle control.

The values that follow come from patent US11918568B2, “Fused ring compound having urea structure” (DAIICHI SANKYO COMPANY, LIMITED, priority 2018, dated 2024).

“Also recorded” adds a separate entry of the source.

Chain of human NAMPT enzyme (P43490 whole entry): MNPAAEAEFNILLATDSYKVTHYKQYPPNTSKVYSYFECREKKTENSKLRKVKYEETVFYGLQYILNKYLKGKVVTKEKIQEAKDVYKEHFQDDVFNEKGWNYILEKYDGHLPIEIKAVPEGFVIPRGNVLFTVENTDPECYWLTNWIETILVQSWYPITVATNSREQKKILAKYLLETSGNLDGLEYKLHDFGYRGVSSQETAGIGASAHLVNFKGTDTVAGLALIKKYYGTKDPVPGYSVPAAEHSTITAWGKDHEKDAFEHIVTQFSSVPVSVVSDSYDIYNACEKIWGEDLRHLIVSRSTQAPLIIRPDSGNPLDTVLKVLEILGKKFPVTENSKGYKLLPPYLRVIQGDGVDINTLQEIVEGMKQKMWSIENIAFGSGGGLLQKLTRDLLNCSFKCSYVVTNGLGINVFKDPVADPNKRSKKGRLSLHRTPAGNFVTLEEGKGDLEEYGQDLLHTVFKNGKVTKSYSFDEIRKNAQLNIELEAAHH

On to `O=C(NCc1ccncc1)Nc1ccc2nc(-c3ccccc3)oc2c1` [Example 2, N-(2-Phenyl-1,3-benzoxazol-6-yl)-N′-[(pyridin-4-yl)methyl]urea], for which, in the assay on C57BL/6N DIO mice [1], the body weight change result is recorded as “weight lowering effect; also recorded: decreases body weights”. Moreover, in the assay on C57BL/6N mice [2], the “NAD+ levels in retina” value is recorded as “NAD^+ levels were increased; also recorded: increases NAD^+ levels”. Also, in the assay on C57BL/6N DIO mice [3], the “oxygen consumption (VO2) per weight” value is “increased an oxygen consumption per weight; also recorded: increases oxygen consumption”. The “NAD+ levels in liver, gastrocnemius, soleus, and brown adipose tissues” value with C57BL/6N mice [4] and with C57BL/6N DIO mice [6] was “increases NAD^+ levels” throughout. Besides, the EC50 worked out at 190 nM in the assay with HEK293A cells and 50 nM at human NAMPT enzyme. The “NAD+ levels in major tissues (heart, kidney, spleen, lung, white adipose tissue)” value in the assay on C57BL/6N DIO mice [5] is “NAD^+ levels were increased; also recorded: increases NAD^+ levels”.

Regarding `CNC1(c2ccccc2Cl)CCCCC1=O` (stereo not drawn) [ketamine, Ketamine, reference compound], the “immobility time in forced swimming test” value with WKY rats is on record as “significantly shortened the immobility time”.

Usually EC50 stands for the concentration at which the effect is half-maximal.
